# Results published in patent US5707977A, “Watersoluble azole antifungals” (Janssen Pharmaceutica, N.V., priority 1996, dated 1998).
# Structures can show the parent of a compound that is named as a salt.
# What was measured:
# Trichophyton quinckeanum = test: Mouse triple mycosis model: cutaneous dermatophytosis (trichophytosis); format: in vivo; set-up: unit not given here; details: treatment for 5 days, mice
# Description: (§1) The test compounds were evaluated for their activity in a mouse model of fungal infection in which three mycoses--vaginal candidosis, cutaneous trichophytosis and disseminated aspergillosis--were established simultaneously. The mice, in groups of 10, were pretreated with subcutaneous injections of oestradiol valerate (500 μg) then inoculated on day 0 with the following: 100 000 colony forming units (CFU)/g of Aspergillus fumigatus B 19119 intravenously, a suspension containing 10^8 Candida albicans cells intravaginally and a aqueous suspension of Trichophyton quinckeanum on lightly scarified dorsal skin. Treatment with the test compounds (orally or intravenously) was begun on the day of infection and continued for 5 days.
# Candida albicans [1] = test: Mouse triple mycosis model: vaginal candidosis; format: in vivo; set-up: unit not given here; details: treatment for 5 days, mice
# Description: as §1
# [2] = Solubility in water and in 0.1N HCl (1 hour shaking at room temperature, UV-spectroscopy); format: physicochemical
# Description: An excess of compound was added to 5 ml of solvent (the type of solvent is specified in the table). The mixture was shaken during 1 hour at room temperature. The precipitate was filtered off. The concentration of the compound was measured via UV-spectroscopy and is shown in the column "Solubility".
# Candida albicans [3] = test: Mouse disseminated Candida model; format: in vivo; details: IV route; treatment repeated daily for 9 days; mice
# Description: Mice in groups of 10 were infected intravenously with 8×10^5 CFU of Candida albicans. Treatment was begun on the day of infection and repeated daily for 9 days. Candida albicans CFU/g kidney were measured for all mice that died spontaneously or were killed on day 10.
# The table indicates the lowest concentrations of the shown compounds that achieved a reduction in mean Candida counts of 1 log (i.e. a 10-fold reduction) or more, either in the triple mycosis model or the disseminated Candida infection; also the lowest concentrations that reduced mean skin scores below 1.0 in the cutaneous dermatophytosis component of this model (NT=nor tested, IV=intravenous).
# [4] = water, solvent: water, measured pH 6.65 to 7.01
# [5] = 0.1n hcl, solvent: 0.1N HCl, measured pH 1.25 to 1.75
compound,measurement,setting,value
"CC(C)(C)C(Cn1ncn(-c2ccc(N3CCN(c4ccc(OC[C@H]5CO[C@](Cn6cncn6)(c6ccc(F)cc6F)O5)cc4)CC3)cc2)c1=O)OP(=O)(O)O (mixture of isomers) [Compound 17, (±)-cis-4-[4-[4-[4-[[2-(2,4-difluorophenyl)-2-(1H-1,2,4-triazol-1-ylmethyl)-1,3-dioxolan-4-yl]methoxy]phenyl]-1-piperazinyl]phenyl]-2-[3,3-dimethyl-2-(phosphonooxy)butyl]-2,4-dihydro-3H-1,2,4-triazol-3-one hemihydrate]","lowest concentration, Dermatophyte skin score reduced to ≤1","Trichophyton quinckeanum; IV route, hemihydrate",< 2.5
same,"lowest concentration, Vaginal Candida CFU reduced by 1 log or more","Candida albicans [1]; IV route, hemihydrate",< 2.5
"CC(C)(C)C(Cn1ncn(-c2ccc(N3CCN(c4ccc(OC[C@H]5CO[C@](Cn6cncn6)(c6ccc(F)cc6F)O5)cc4)CC3)cc2)c1=O)OP(=O)(O)Oc1ccccc1 (mixture of isomers) [Compound 2, (±)-cis-1-[[4-[4-[4-[4-[[2-(2,4-difluorophenyl)-2-(1H-1,2,4-triazol-1-ylmethyl)-1,3-dioxolan-4-yl]methoxy]phenyl]-1-piperazinyl]phenyl]-4,5-dihydro-5-oxo-1H-1,2,4-triazol-1-yl]methyl]-2,2-dimethylpropyl phenyl sodium phosphate]",solubility at 1 h,"[2]; solvent: water, measured pH 6.65 to 7.01",> 6000 µg/mL
"CC(C)(C)C(Cn1ncn(-c2ccc(N3CCN(c4ccc(OC[C@H]5CO[C@](Cn6cncn6)(c6ccc(F)cc6F)O5)cc4)CC3)cc2)c1=O)OP(=O)(O)O (mixture of isomers) [Compound 3, (±)-ammonium cis-1-[[4-[4-[4-[4-[[2-(2,4-difluorophenyl)-2-(1H-1,2,4-triazol-1-ylmethyl)-1,3-dioxolan-4-yl]methoxy]phenyl]-1-piperazinyl]phenyl]-4,5-dihydro-5-oxo-1H-1,2,4-triazol-1-yl]methyl]-2,2-dimethylpropyl phosphate]",solubility at 1 h,[2]; [4],31900 µg/mL
same,"lowest concentration, Dermatophyte skin score reduced to ≤1",Trichophyton quinckeanum; IV route,2.5
same,"lowest concentration, Dermatophyte skin score reduced to ≤1",Trichophyton quinckeanum; oral route,2.5
same,"lowest concentration, Vaginal Candida CFU reduced by 1 log or more",Candida albicans [1]; IV route,2.5
same,"lowest concentration, Vaginal Candida CFU reduced by 1 log or more",Candida albicans [1]; oral route,2.5
same,"lowest concentration, Kidney Candida CFU reduced by 1 log or more",Candida albicans [3],10
"CC(C)(C)C(Cn1ncn(-c2ccc(N3CCN(c4ccc(OC[C@H]5CO[C@](Cn6cncn6)(c6ccc(F)cc6F)O5)cc4)CC3)cc2)c1=O)OC(=O)CCN1CCCC1 (mixture of isomers) [Compound 37, (±)-cis-1-[[4-[4-[4-[4-[[2-(2,4-difluorophenyl)-2-(1H-1,2,4-triazol-1-ylmethyl)-1,3-dioxolan-4-yl]methoxy]phenyl]-1-piperazinyl]phenyl]-4,5-dihydro-5-oxo-1H-1,2,4-triazol-1-yl]methyl]-2,2-dimethylpropyl 1-pyrrolidinepropanoate . monohydrochloride . monohydrate]",solubility at 1 h,[2]; [5],> 6000 µg/mL
"CC(C)(C)C(Cn1ncn(-c2ccc(N3CCN(c4ccc(OC[C@H]5CO[C@](Cn6cncn6)(c6ccc(Cl)cc6)O5)cc4)CC3)cc2)c1=O)OP(=O)(O)O (mixture of isomers) [Compound 7, (±)-ammonium cis-1-[[4-[4-[4-[4-[[2-(4-chlorophenyl)-2-(1H-1,2,4-triazol-1-yl-methyl)-1,3-dioxolan-4-yl]methoxy]phenyl]-1-piperazinyl]phenyl]-4,5-dihydro-5-oxo-1H-1,2,4-triazol-1-yl]methyl]-2,2-dimethylpropyl phosphate(ester) monohydrate]",solubility at 1 h,[2]; [4],350 µg/mL
CN1CCN(CC(=O)OC(Cn2ncn(-c3ccc(N4CCN(c5ccc(OC[C@H]6CO[C@](Cn7cncn7)(c7ccc(F)cc7F)O6)cc5)CC4)cc3)c2=O)C(C)(C)C)CC1 (stereo partly drawn) [Compound 29],solubility at 1 h,[2]; [5],4890 µg/mL
CC(C)(C)C(Cn1ncn(-c2ccc(N3CCN(c4ccc(OC[C@H]5CO[C@](Cn6cncn6)(c6ccc(F)cc6F)O5)cc4)CC3)cc2)c1=O)OC(=O)CN1CCN(CCO)CC1 (stereo partly drawn) [Compound 31],solubility at 1 h,[2]; [5],> 6000 µg/mL
"CC(C)(C)C(Cn1ncn(-c2ccc(N3CCN(c4ccc(OC[C@H]5CO[C@](Cn6cncn6)(c6ccc(F)cc6F)O5)cc4)CC3)cc2)c1=O)OC(=O)CCN (mixture of isomers) [Compound 36, (±)-cis-1-[[4-[4-[4-[4-[[2-(2,4-difluorophenyl)-2-(1H-1,2,4-triazol-1-ylmethyl)-1,3-dioxolan-4-yl]methoxy]phenyl]-1-piperazinyl]phenyl]-4,5-dihydro-5-oxo-1H-1,2,4-triazol-1-yl]methyl]-2,2-dimethylpropyl β-alanine monohydrochloride]",solubility at 1 h,[2]; [5],> 6000 µg/mL
"CN1CCN(CC(=O)OC(Cn2ncn(-c3ccc(N4CCN(c5ccc(OC[C@H]6CO[C@](Cn7cncn7)(c7ccc(F)cc7F)O6)cc5)CC4)cc3)c2=O)C(C)(C)C)CC1 (mixture of isomers) [Compound 34, (±)-cis-1-[[4-[4-[4-[4-[[2-(2,4-difluorophenyl)-2-(1H-1,2,4-triazol-1-ylmethyl)-1,3-dioxolan-4-yl]methoxy]phenyl]-1-piperazinyl]phenyl]-4,5-dihydro-5-oxo-1H-1,2,4-triazol-1-yl]methyl]-2,2-dimethylpropyl 4-methyl-1-piperazineacetate monohydrochloride]",Solubility,"[2]; solvent: 0.1N HCl, measured pH 1.25 to 1.75, monohydrochloride, 60 min",> 6 mg/mL
same,"lowest concentration, Dermatophyte skin score reduced to ≤1",Trichophyton quinckeanum; IV route,2.5
same,"lowest concentration, Dermatophyte skin score reduced to ≤1",Trichophyton quinckeanum; oral route,2.5
same,"lowest concentration, Vaginal Candida CFU reduced by 1 log or more",Candida albicans [1]; IV route,2.5
same,"lowest concentration, Vaginal Candida CFU reduced by 1 log or more",Candida albicans [1]; oral route,2.5
same,"lowest concentration, Kidney Candida CFU reduced by 1 log or more",Candida albicans [3],5
CC(C)(C)C(Cn1ncn(-c2ccc(N3CCN(c4ccc(OC[C@H]5CO[C@](Cn6cncn6)(c6ccc(F)cc6F)O5)cc4)CC3)cc2)c1=O)OC(=O)CN (stereo partly drawn) [Compound 38],solubility at 1 h,[2]; [5],> 6000 µg/mL
CN1CCN(CCC(=O)OC(Cn2ncn(-c3ccc(N4CCN(c5ccc(OC[C@H]6CO[C@](Cn7cncn7)(c7ccc(F)cc7F)O6)cc5)CC4)cc3)c2=O)C(C)(C)C)CC1 (stereo partly drawn) [Compound 33],solubility at 1 h,[2]; [5],> 6000 µg/mL
"CC(C)(C)C(Cn1ncn(-c2ccc(N3CCN(c4ccc(OC[C@H]5CO[C@](Cn6cncn6)(c6ccc(F)cc6)O5)cc4)CC3)cc2)c1=O)OP(=O)(O)O (mixture of isomers) [Compound 9, (±)-ammonium cis-1-[[4-[4-[4-[4-[[2-(4-fluorophenyl)-2-(1H-1,2,4-triazol-1-ylmethyl)-1,3-dioxolan-4-yl]methoxy]phenyl]-1-piperazinyl]phenyl]-4,5-dihydro-5-oxo-1H-1,2,4-triazol-1-yl]methyl]-2,2-dimethylpropyl phosphate]",solubility at 1 h,[2]; [4],2650 µg/mL
CCN(CC)CC(=O)OC(Cn1ncn(-c2ccc(N3CCN(c4ccc(OC[C@H]5CO[C@](Cn6cncn6)(c6ccc(F)cc6F)O5)cc4)CC3)cc2)c1=O)C(C)(C)C (stereo partly drawn) [Compound 30],solubility at 1 h,[2]; [5],5220 µg/mL
